This is an account of results in PubChem BioAssay AID1919000 (Molecular Pharmacology Branch, DTP, NCI, 2023).

What is called IC50 is the concentration at which inhibition is half-maximal. What is called viability, T/C is the result in the treated group divided by that in the control group, in per cent.

Structures are written as SMILES. Values joined by “and” are separate entries in the source; they are usually repeats but may differ in a detail not shown here. Equal values may be shown once.

This experiment has as its system 653999-131-R-J2-PDC complex spheroids, growth % test/control. Nature of the experiment: Anticancer human tumor 653999-131-R-J2-PDC patient-derived lung adenocarcinoma cell line growth inhibition [AhR]. The settings on record: for viability, T/C: stronger effect = lower value. A digest of the protocol:
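Complex tumor spheroids co-cultured with HUVEC and human MSC stroma; AhR antagonists tested in combination with standard-of-care and investigational agents. Top concentration at or near clinical Cmax (else 10 microM), half-log dilutions; growth expressed as percent test/control.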

Where [1] appears, read: curve of first compound, second compound 0.1 µM.
[2] abbreviates: curve of first compound, second compound 0.316 µM.
Setting [3] is: curve of first compound, second compound 1 µM.
The mark [4] stands for this setting: curve of first compound, second compound 3.16 µM.
Where [5] appears, read: curve of first compound, second compound 10 µM.
The mark [6] stands for this setting: second compound 0.1 µM, first compound 0.000316 µM.
Where [7] appears, read: second compound 0.1 µM, first compound 0.001 µM.
[8] abbreviates: second compound 0.1 µM, first compound 0.00316 µM.
The mark [9] stands for this setting: second compound 0.1 µM, first compound 0.01 µM.
[10] abbreviates: second compound 0.1 µM, first compound 0.0316 µM.
The mark [11] stands for this setting: second compound 0.1 µM, first compound 0.1 µM.
The mark [12] stands for this setting: second compound 0.316 µM, first compound 0.000316 µM.
[13] abbreviates: second compound 0.316 µM, first compound 0.001 µM.
Setting [14] is: second compound 0.316 µM, first compound 0.00316 µM.
Where [15] appears, read: second compound 0.316 µM, first compound 0.01 µM.
Setting [16] is: second compound 0.316 µM, first compound 0.0316 µM.
[17] abbreviates: second compound 0.316 µM, first compound 0.1 µM.
Setting [18] is: second compound 1 µM, first compound 0.000316 µM.
The mark [19] stands for this setting: second compound 1 µM, first compound 0.001 µM.
Where [20] appears, read: second compound 1 µM, first compound 0.00316 µM.
Where [21] appears, read: second compound 1 µM, first compound 0.01 µM.
The mark [22] stands for this setting: second compound 1 µM, first compound 0.0316 µM.
Setting [23] is: second compound 1 µM, first compound 0.1 µM.
The mark [24] stands for this setting: second compound 3.16 µM, first compound 0.000316 µM.
The mark [25] stands for this setting: second compound 3.16 µM, first compound 0.001 µM.
Where [26] appears, read: second compound 3.16 µM, first compound 0.00316 µM.
[27] abbreviates: second compound 3.16 µM, first compound 0.01 µM.
Where [28] appears, read: second compound 3.16 µM, first compound 0.0316 µM.
Where [29] appears, read: second compound 3.16 µM, first compound 0.1 µM.
Setting [30] is: second compound 10 µM, first compound 0.000316 µM.
Setting [31] is: second compound 10 µM, first compound 0.001 µM.
[32] abbreviates: second compound 10 µM, first compound 0.00316 µM.
Setting [33] is: second compound 10 µM, first compound 0.01 µM.
Setting [34] is: second compound 10 µM, first compound 0.0316 µM.
[35] abbreviates: second compound 10 µM, first compound 0.1 µM.
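Also: spheroids exposed to agents for seven days.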
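For viability, T/C in this document: 100% = DMSO vehicle control viability.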

Regarding `Cn1ncnc1C1c2n[nH]c(=O)c3cc(F)cc(c23)NC1c1ccc(F)cc1` (centres undefined) + Cc1ccccc1N=Nc1ccc(NC(=O)c2ccnn2C)c(C)c1, the IC50 reads like this: under setting [1], > 100 nM; under setting [2], > 100 nM; under setting [3], > 100 nM; under setting [4], > 100 nM; under setting [5], > 100 nM. Further, the viability, T/C was 106% under setting [6]; 84.6% under setting [7]; 102% under setting [8]; 92.3% under setting [9]; 99.9% under setting [10]; 98% under setting [11]. Besides, the viability, T/C under setting [12] is 94.3%; the viability, T/C under setting [13] is 111%; the viability, T/C under setting [14] is 104%; the viability, T/C under setting [15] was 95%; the viability, T/C under setting [16] is 91.5%; the viability, T/C under setting [17] is 92.8%. Further, the viability, T/C under setting [18] is 103%; the viability, T/C under setting [19] is 96.7%; the viability, T/C under setting [20] was 104%; the viability, T/C under setting [21] was 108%; the viability, T/C under setting [22] was 93.3%; the viability, T/C under setting [23] was 95.6%. For the same compound, the viability, T/C under setting [24] was 93.4%; the viability, T/C under setting [25] was 105%; the viability, T/C under setting [26] is 106%; the viability, T/C under setting [27] is 94.9%; the viability, T/C under setting [28] was 101%; the viability, T/C under setting [29] is 103%. The viability, T/C under setting [30] is 86.2%; the viability, T/C under setting [31] is 104%; the viability, T/C under setting [32] is 106%; the viability, T/C under setting [33] is 95%; the viability, T/C under setting [34] was 109%; the viability, T/C under setting [35] was 87.3%.

On to `Cn1ncnc1C1c2n[nH]c(=O)c3cc(F)cc(c23)NC1c1ccc(F)cc1` (centres undefined) + CC(CO)NC(=O)c1cc(-c2ccc(Cl)cc2)nn(-c2cnn(C)c2)c1=O, for which the IC50 by setting is: under setting [1], > 100 nM; under setting [2], > 100 nM; under setting [3], > 100 nM; under setting [4], > 100 nM; under setting [5], > 100 nM. The viability, T/C under setting [6] is 104%; the viability, T/C under setting [7] was 99.5%; the viability, T/C under setting [8] was 109%; the viability, T/C under setting [9] is 101%; the viability, T/C under setting [10] is 102%; the viability, T/C under setting [11] is 91.9%. The viability, T/C by setting is: under setting [12], 111%; under setting [13], 98.8%; under setting [14], 97.1%; under setting [15], 96.3%; under setting [16], 87.2%; under setting [17], 102%. Further, the viability, T/C is, setting by setting: under setting [18], 105%; under setting [19], 103%; under setting [20], 102%; under setting [21], 106%; under setting [22], 95.5%; under setting [23], 96%. Besides, the viability, T/C was 99.2% under setting [24]; 107% under setting [25]; 114% under setting [26]; 102% under setting [27]; 97.2% under setting [28]; 100% under setting [29]. Also, the viability, T/C is, setting by setting: under setting [30], 106%; under setting [31], 105%; under setting [32], 103%; under setting [33], 97.1%; under setting [34], 94.8%; under setting [35], 93.2%.

Regarding `CC(CO)NC(=O)c1cc(-c2ccc(Cl)cc2)nn(-c2cnn(C)c2)c1=O` (centres undefined), the viability, T/C (compound 0.1 µM) was 93.8% [middle of 20 runs]. Also, the IC50 (compound alone, run of 05/31/2022) is > 10000 nM.

In the case of `Nc1ccn(C2OC(CO)C(O)C2(F)F)c(=O)n1` (centres undefined) + Cc1ccccc1N=Nc1ccc(NC(=O)c2ccnn2C)c(C)c1, the IC50 reads like this: under setting [1], 532 nM; under setting [2], 371 nM; under setting [3], 940 nM; under setting [4], 454 nM; under setting [5], 2960 nM. Also, the viability, T/C was 64.2% under setting [10]; 65% under setting [11]; 49.3% (second compound 0.1 µM, first compound 0.316 µM); 44.9% (second compound 0.1 µM, first compound 1 µM); 42.9% (second compound 0.1 µM, first compound 3.16 µM); 34.2% (second compound 0.1 µM, first compound 10 µM). Besides, the viability, T/C by setting is: under setting [16], 70.6%; under setting [17], 60.9%; (second compound 0.316 µM, first compound 0.316 µM) 52.8%; (second compound 0.316 µM, first compound 1 µM) 39.8%; (second compound 0.316 µM, first compound 3.16 µM) 43.5%; (second compound 0.316 µM, first compound 10 µM) 36.8%. The viability, T/C is 69.2% under setting [22]; 66.4% under setting [23]; 60.5% (second compound 1 µM, first compound 0.316 µM); 44.4% (second compound 1 µM, first compound 1 µM); 43.5% (second compound 1 µM, first compound 3.16 µM); 36% (second compound 1 µM, first compound 10 µM). Besides, the viability, T/C is 72.5% under setting [28]; 62.4% under setting [29]; 51.5% (second compound 3.16 µM, first compound 0.316 µM); 44.9% (second compound 3.16 µM, first compound 1 µM); 42.1% (second compound 3.16 µM, first compound 3.16 µM); 38.7% (second compound 3.16 µM, first compound 10 µM). Moreover, the viability, T/C is 66.8% under setting [34]; 65.5% under setting [35]; 65.2% (second compound 10 µM, first compound 0.316 µM); 50.3% (second compound 10 µM, first compound 1 µM); 46.1% (second compound 10 µM, first compound 3.16 µM); 48.5% (second compound 10 µM, first compound 10 µM).

Turning to `CC(C)c1c(-c2ccccc2)nc2c(C#N)c[nH]n2c1=O`, the viability, T/C (compound 0.0316 µM) is 109% and 93.9% and 110%; the viability, T/C (compound 0.1 µM) is 112% (2×) and 109%; the viability, T/C (compound 0.316 µM) is 96.8% and 108% and 104%; the viability, T/C (compound 1 µM) is 90.2% and 116% and 109%; the viability, T/C (compound 3.16 µM) was 103% and 101% (2×); the viability, T/C (compound 10 µM) was 96.2% (2×) and 103%. Besides, the IC50 (curve of compound) was > 10000 nM.
